Values of other authors as cited in patent publication US9597313B2 (priority 2006, dated 2017).

System: aflatoxin-N7-guanine adducts
Conditions: 100 mg chlorophyllin three times a day for four months

For chlorophyllin, the “Reduction in median urinary levels of aflatoxin-N7-guanine adducts compared with placebo” value is listed as 55%.
